According to patent US20170343551A1, “METHOD OF DIAGNOSING AND TREATING PROSTATE CANCER” (Board of Supervisors of Louisiana State University and …, priority 2016, published 2017):

Experiments:
Assay type in all cases: cell-based
PC3 cells [1] = experiment: Cell migration ability of PC3 cells; conditions: FIG. 8C
Text: (§1) FIGS. 8A-8C show SPDEF is subjected to DNA methylation regulation.
(§2) Both culture and socioeconomic status can affect epigenetic processes; and the epigenetic modification effects can extend not only throughout the life course, but also to generations followed. DNA methylation and histone modifications are two common epigenetic mechanisms that control the expression of affected genes. […] Concomitant with the increased levels of SPDEF, 5-aza treatments reduced the cell migration and invasion ability of PC3 cells. Additionally, the inventors have also examined the distribution of CpG islands in the proximal promoter region of SPDEF. […] Expected treatment levels include, for example, azacytidine 2.5 mg/kg and decitabine 2.5 mg/kg.

SPDEF mRNA in PC3 cells = experiment: SPDEF (PDEF) mRNA expression by RT-PCR in treated PC3 cells; conditions: FIG. 8A/8B
Text: as §1, §2

PC3 cells [2] = experiment: Invasion ability of PC3 cells
TMS1 in PC3 cells = experiment: TMS1 expression (methylation-repressed positive control gene) in treated PC3 cells; conditions: known methylation-repressed gene as positive control, FIG. 8A
Text: as §1

Structure (SMILES) | cell migration ability (PC3 cells [1]) | expression of SPDEF (PDEF) mRNA (SPDEF mRNA in PC3 cells) | invasion ability (PC3 cells [2]) | expression of TMS1 (TMS1 in PC3 cells)
Nc1ncn([C@H]2C[C@H](O)[C@@H](CO)O2)c(=O)n1 [5-Aza, 5-aza-2′-deoxycytidine] | reduced | induced | reduced | induced
CCCC(CCC)C(=O)O [VPA, valproic acid] | – | did not alter | – | –
